Assay results as given in patent publication US8299070B2, “Indole compounds and pharmaceutical use thereof” (Japan Tobacco Inc., priority 2009, dated 2012).

Biological target: T1, hITK enzyme (FLAG-tagged full-length hITK) (Homo sapiens, UniProt Q08881)
T1 construct: strongly expressing FLAG-tagged full-length hITK in Sf9 cells; FLAG; made in house; host or cells: Sf9 insect cells (ITK); Escherichia coli (GST-SLP76 substrate)
T1 sequence (Q08881 1-620): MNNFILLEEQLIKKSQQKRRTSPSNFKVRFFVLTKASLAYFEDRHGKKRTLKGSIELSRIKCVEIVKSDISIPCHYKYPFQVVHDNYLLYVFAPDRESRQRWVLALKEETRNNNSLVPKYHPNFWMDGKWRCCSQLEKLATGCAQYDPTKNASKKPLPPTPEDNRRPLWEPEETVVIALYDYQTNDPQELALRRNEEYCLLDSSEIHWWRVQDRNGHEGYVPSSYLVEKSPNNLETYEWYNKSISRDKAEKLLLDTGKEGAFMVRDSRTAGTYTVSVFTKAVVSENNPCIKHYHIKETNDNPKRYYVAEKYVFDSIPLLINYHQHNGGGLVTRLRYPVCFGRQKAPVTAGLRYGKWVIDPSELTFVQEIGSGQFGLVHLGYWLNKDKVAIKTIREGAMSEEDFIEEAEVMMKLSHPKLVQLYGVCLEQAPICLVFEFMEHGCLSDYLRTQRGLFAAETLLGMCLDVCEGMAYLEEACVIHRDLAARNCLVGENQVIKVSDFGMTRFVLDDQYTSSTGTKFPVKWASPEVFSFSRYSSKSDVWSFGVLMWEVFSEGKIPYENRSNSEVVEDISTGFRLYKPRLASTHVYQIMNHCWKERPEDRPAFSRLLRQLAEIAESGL
Assay: ITK inhibitory activity (HTRF kinase assay, biotinylated GST-SLP76 substrate)
Type: biochemical
Details: IC50 calculated from the 2 test compound concentrations sandwiching 50% ITK inhibitory rate
Summary of the method: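 Sf9-expressed hITK (50 ng/mL enzyme solution) reacted 10 min at RT in MOPS pH 7.0, 10 mmol/L MgCl2, 1 mmol/L DTT with E. coli SLP76 aa95–175 substrate; substrate solution held 100 µmol/L ATP (6 µmol/L for selected compounds). HTRF 665/620 ratio, blank-corrected; IC50 interpolated between two concentrations bracketing 50% inhibition.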

Row | Compound | IC50
1 | CC(=O)N(C)c1ccc2cc(-c3n[nH]c4c3CCCC4)[nH]c2c1 [Example 360] | 67 nM
2 | COCC(OC)C(=O)N(C)c1ccc2cc(-c3n[nH]c4c3CCC(C)(C)C4)[nH]c2c1 (centres unmarked) [Example 47] | 8 nM
3 | CC1(C)CCc2c(-c3cc4cc(C(=O)NCc5nccs5)ccc4[nH]3)n[nH]c2C1 [Example 316] | 47 nM
4 | CC1CCN(c2ccc3cc(-c4n[nH]c5c4CCC(C)(C)C5)[nH]c3c2)C1=O (centres unmarked) [Example 229] | 38 nM
5 | COCC(C)C(=O)N(C)c1ccc2cc(-c3n[nH]c4c3CCC(C)(C)C4)[nH]c2c1 (centres unmarked) [Example 58] | 6 nM
6 | CC(C(=O)N(C)c1ccc2cc(-c3n[nH]c4c3CCC(C)(C)C4)[nH]c2c1)N1CCOCC1=O (centres unmarked) [Example 147] | 8 nM
7 | CC1(C)CCc2c(-c3cc4ccc(N(CCO)C(=O)CC5CCOCC5)cc4[nH]3)n[nH]c2C1 [Example 249] | 7 nM
8 | CC1(C)CCc2c(-c3cc4ccc(N(CCO)C(=O)C(O)C5CCCOC5)cc4[nH]3)n[nH]c2C1 (centres unmarked) [Example 246] | 7 nM
9 | CN(C(=O)c1ccccc1)c1ccc2cc(-c3n[nH]c4c3CCC(C)(C)C4)[nH]c2c1 [Example 30] | 10 nM
10 | COC1CCCC(C(=O)N(C)c2ccc3cc(-c4n[nH]c5c4CCC(C)(C)C5)[nH]c3c2)C1 (centres unmarked) [Example 99] | 26 nM
11 | COC(=O)CNC(=O)c1ccc2[nH]c(-c3n[nH]c4c3CCC(C)(C)C4)cc2c1 [Example 305] | 13 nM
12 | COCCNC(=O)c1ccc2[nH]c(-c3n[nH]c4c3CCC(C)(C)C4)cc2c1 [Example 310] | 47 nM
13 | CN(C(=O)C1CCCCC1)c1ccc2cc(-c3n[nH]c4c3CCC(C)(C)C4)[nH]c2c1 [Example 124] | 12 nM
14 | CN(C(=O)CN1CCC(O)CC1)c1ccc2cc(-c3n[nH]c4c3CCC(C)(C)C4)[nH]c2c1 [Example 107] | 10 nM
15 | CC(C)OCC(=O)N(C)c1ccc2cc(-c3n[nH]c4c3CCCC4)[nH]c2c1 [Example 359] | 21 nM
16 | CN1CCC(C(=O)N(C)c2ccc3cc(-c4n[nH]c5c4CCC(C)(C)C5)[nH]c3c2)CC1 [Example 65] | 55 nM
17 | CC(=O)N1CCC(C(=O)N(C)c2ccc3cc(-c4n[nH]c5c4CCC(C)(C)C5)[nH]c3c2)CC1 [Example 64] | 6 nM
18 | CN(C(=O)CCC1CCCCC1)c1ccc2cc(-c3n[nH]c4c3CCC(C)(C)C4)[nH]c2c1 [Example 93] | 48 nM
19 | CC1CCc2c(-c3cc4ccc(N(C)C(=O)c5ccccc5)cc4[nH]3)n[nH]c2C1 (centres unmarked) [Example 357] | 29 nM
20 | CC(C(=O)N(C)c1ccc2cc(-c3n[nH]c4c3CCC(C)(C)C4)[nH]c2c1)C1CCCCC1 (centres unmarked) [Example 97] | 20 nM
21 | CC1(C)CCc2c(-c3cc4ccc(N(CCO)C(=O)C5CCCCC5)cc4[nH]3)n[nH]c2C1 [Example 239] | 5 nM

Row | Compound | IC50
22 | CN(C(=O)C(C)(C)O)c1ccc2cc(-c3n[nH]c4c3CCC(C)(C)C4)[nH]c2c1 [Example 37] | 8 nM
23 | CCC(=O)N(C)c1ccc2cc(-c3n[nH]c4c3CCCC4)[nH]c2c1 [Example 351] | 24 nM
24 | CC1(C)CCc2c(-c3cc4ccc(N(CCO)C(=O)CC5CCCCC5)cc4[nH]3)n[nH]c2C1 [Example 235] | 8 nM
25 | CC1(C)CCc2c(-c3cc4ccc(N5CCCCC5=O)cc4[nH]3)n[nH]c2C1 [Example 211] | 33 nM
26 | CC(C)C(CO)NC(=O)c1ccc2cc(-c3n[nH]c4c3CCC(C)(C)C4)[nH]c2c1 (centres unmarked) [Example 23] | 18 nM
27 | CO[C@H]1CC[C@@H](C(=O)N(C)c2ccc3cc(-c4n[nH]c5c4CCC(C)(CO)C5)[nH]c3c2)CC1 (some centres unmarked) [Example 346] | 5 nM
28 | CN(C(=O)CCN1CCCC1=O)c1ccc2cc(-c3n[nH]c4c3CCC(C)(C)C4)[nH]c2c1 [Example 144] | 9 nM
29 | CC1(C)CCc2c(-c3cc4cc(C(=O)NC(C)(C)C(=O)OC(C)(C)C)ccc4[nH]3)n[nH]c2C1 [Example 327] | 132 nM
30 | CN(C(=O)CO)c1ccc2cc(-c3n[nH]c4c3CCC(C)(C)C4)[nH]c2c1 [Example 35] | 5 nM
31 | COCC(NC(=O)c1ccc2cc(-c3n[nH]c4c3CCC(C)(C)C4)[nH]c2c1)C(C)C (centres unmarked) [Example 24] | 25 nM
32 | CCC(=O)N(CCOC)c1ccc2cc(-c3n[nH]c4c3CCC(C)(C)C4)[nH]c2c1 [Example 212] | 5 nM
33 | COC1CCc2[nH]nc(-c3cc4ccc(N(C)C(=O)c5ccccc5)cc4[nH]3)c2C1 (centres unmarked) [Example 370] | 204 nM
34 | CN(C(=O)CCO)c1ccc2cc(-c3n[nH]c4c3CCC(C)(C)C4)[nH]c2c1 [Example 63] | 6 nM
35 | CC(C)OCCNC(=O)c1ccc2[nH]c(-c3n[nH]c4c3CCC(C)(C)C4)cc2c1 [Example 307] | 61 nM
36 | CC1(C)CCc2c(-c3cc4ccc(N5CCCC5=O)cc4[nH]3)n[nH]c2C1 [Example 210] | 36 nM
37 | CC1(C)CCc2c(-c3cc4cc(C(N)=O)ccc4[nH]3)n[nH]c2C1 [Example 297] | 48 nM
38 | COCC(=O)N(C)c1ccc2cc(-c3n[nH]c4c3CCCC4)[nH]c2c1 [Example 352] | 37 nM
39 | CN(C(=O)CN1CCC[C@@H](O)C1)c1ccc2cc(-c3n[nH]c4c3CCC(C)(C)C4)[nH]c2c1 [Example 110] | 7 nM
40 | CN(CC(C)(C)C)C(=O)c1ccc2cc(-c3n[nH]c4c3CCC(C)(C)C4)[nH]c2c1 [Example 15] | 9 nM
41 | COCC(C)NC(=O)c1ccc2cc(-c3n[nH]c4c3CCC(C)(C)C4)[nH]c2c1 (centres unmarked) [Example 21] | 30 nM

Further lines, results first:

Row | IC50 | Compound
42 | 4 nM | CN(C(=O)C(C)(C)CO)c1ccc2cc(-c3n[nH]c4c3CCC(C)(C)C4)[nH]c2c1 [Example 76]
43 | 1 nM | C[C@@H]1COCC(=O)N1CC(=O)N(C)c1ccc2cc(-c3n[nH]c4c3CCC(C)(C)C4)[nH]c2c1 [Example 171]
44 | 2 nM | CN(C(=O)CN1C(=O)CC[C@@H]1CO)c1ccc2cc(-c3n[nH]c4c3CCC(C)(C)C4)[nH]c2c1 [Example 177]
45 | 4 nM | CC(C)CC(=O)N(CCO)c1ccc2cc(-c3n[nH]c4c3CCC(C)(C)C4)[nH]c2c1 [Example 247]
46 | < 3 nM | CN(C)CCN(C(=O)C1CCCCC1)c1ccc2cc(-c3n[nH]c4c3CCC(C)(C)C4)[nH]c2c1 [Example 215]
47 | 1 nM | CN(C(=O)CN1CCC(C)(C)C1=O)c1ccc2cc(-c3n[nH]c4c3CCC(C)(C)C4)[nH]c2c1 [Example 183]
48 | 3 nM | C[C@@H]1CN(CC(=O)N(C)c2ccc3cc(-c4n[nH]c5c4CCC(C)(C)C5)[nH]c3c2)C[C@H](C)O1 [Example 119]
49 | 2 nM | COCCN(C(=O)CN1C[C@H](C)OCC1=O)c1ccc2cc(-c3n[nH]c4c3CCC(C)(C)C4)[nH]c2c1 [Example 280]
50 | 1 nM | CCN(C(=O)CN1CCC(C)(C)C1=O)c1ccc2cc(-c3n[nH]c4c3CCC(C)(C)C4)[nH]c2c1 [Example 284]
51 | 4 nM | COC[C@H]1CCC(=O)N1CC(=O)N(C)c1ccc2cc(-c3n[nH]c4c3CCC(C)(C)C4)[nH]c2c1 [Example 196]
52 | 1 nM | COC(=O)N(C)CC(=O)N(C)c1ccc2cc(-c3n[nH]c4c3CCC(C)(C)C4)[nH]c2c1 [Example 198]
53 | 5 nM | CN(C(=O)C1CCOCC1)c1ccc2cc(-c3n[nH]c4c3CCC(C)(C)C4)[nH]c2c1 [Example 60]
54 | 5 nM | COCCN(c1ccc2cc(-c3n[nH]c4c3CCC(C)(C)C4)[nH]c2c1)C(=O)[C@H]1CC[C@@H](OC)CC1 [Example 267]
55 | 4 nM | COC1CCC(C(=O)N(C)c2ccc3cc(-c4n[nH]c5c4CCC(C)(C)C5)[nH]c3c2)CC1 (centres unmarked) [Example 74]
56 | 1 nM | CN1CCN(CC(=O)N(C)c2ccc3cc(-c4n[nH]c5c4CCC(C)(C)C5)[nH]c3c2)C1=O [Example 186]
57 | 2 nM | CC1(C)CCc2c(-c3cc4ccc(N(CCO)C(=O)CN5CCCCC5=O)cc4[nH]3)n[nH]c2C1 [Example 253]
58 | 4 nM | COCCC(=O)N(C)c1ccc2cc(-c3n[nH]c4c3CCC(C)(C)C4)[nH]c2c1 [Example 62]
59 | < 3 nM | CN(C)CCCN(C(=O)C1CCCCC1)c1ccc2cc(-c3n[nH]c4c3CCC(C)(C)C4)[nH]c2c1 [Example 218]
60 | 3 nM | COCCN(C(=O)CN1C(=O)COC[C@@H]1C)c1ccc2cc(-c3n[nH]c4c3CCC(C)(C)C4)[nH]c2c1 [Example 272]
61 | 1 nM | CC1CCN(CC(=O)N(C)c2ccc3cc(-c4n[nH]c5c4CCC(C)(C)C5)[nH]c3c2)C1=O (centres unmarked) [Example 162]
62 | 1 nM | CN(C(=O)Cn1cccn1)c1ccc2cc(-c3n[nH]c4c3CCC(C)(C)C4)[nH]c2c1 [Example 157]
63 | 2 nM | CC1(C)CCc2c(-c3cc4ccc(N(CCO)C(=O)C5CCCC5)cc4[nH]3)n[nH]c2C1 [Example 231]
64 | 1 nM | CC1(C)CCc2c(-c3cc4ccc(N(CCO)C(=O)CN5CCCCCC5=O)cc4[nH]3)n[nH]c2C1 [Example 256]
65 | 3 nM | CN(C(=O)[C@@H]1CCC(=O)N1C)c1ccc2cc(-c3n[nH]c4c3CCC(C)(C)C4)[nH]c2c1 [Example 151]
